Results: patent publication US12286632B2, “Rationally-designed synthetic peptide shuttle agents for delivering polypeptide cargos from an extracellular space to the cytosol and/or nucleus of a target eukaryotic cell, uses thereof, methods and kits relating to same” (Feldan Bio Inc., priority 2016, dated 2025)

Assays:
[1] = test system: HeLa cells; test: GFP-NLS and mCherry-NLS co-transduction, visualization by microscopy; type: cell-based, Human; conditions: each cargo 5 μM; shuttle 35 μM; 10 seconds, Protocol B
Procedure: The media in wells was removed, cells were washed once with PBS previously warmed at 37° C., and the shuttle agent/cargo mixture was then added to cover all cells for the desired length of time. The shuttle agent/cargo mixture in wells was removed, the cells were washed once with PBS, and fresh complete medium was added. Before analysis, the cells were washed once with PBS and fresh complete medium was added.
• GFP-NLS recombinant protein (5 μM; see Example 5.1) and mCherry™-NLS recombinant protein (5 μM) were co-incubated together with 35 μM of His-CM18-PTD4, and then exposed to HeLa cells for 10 seconds using Protocol B as described in Example 9.1. After washing steps, the cells were immediately visualized by bright field and fluorescence microscopy at 20× magnifications as described in Example 3.2. Sample results are shown in FIG. 28, in which corresponding images showing bright field (FIG. 28A), DAPI fluorescence (FIG. 28B), GFP-NLS fluorescence (FIG. 28C), and mCherry™-NLS fluorescence (FIG. 28D) are shown. White triangle windows indicate examples of areas of co-labelling between GFP-NLS and mCherry™ fluorescence signals in cell nuclei. […] 9.7 GFP-NLS Transduction by his-CM18-PTD4 in THP-1 Suspension Cells: Flow Cytometry

[2] = test system: rat parietal cortex; test: In vivo GFP-NLS delivery by stereotaxic injection, fluorescence microscopy of brain slices; conditions: shuttle 20 μM + GFP-NLS 20 μM, 5 μL injected over 10 min; sacrificed 2 h after surgery
Procedure: In separate sterile 1.5-mL tubes, shuttle agent His-CM18-PTD4 was diluted in sterile distilled water at room temperature. […] One negative control was included for the experiment, which corresponds to the injection of the GFP-NLS alone.
Bilateral injections were performed in the parietal cortex of three rats. In the left parietal cortex (ipsilateral), a mix composed of the shuttle agent (20 μM) and the GFP-NLS (20 μM) was injected, and in the right parietal cortex (contralateral), only the GFP-NLS (20 μM) was injected as a negative control. For surgical procedures, […] were anesthetized with isoflurane. Then the animal was placed in a stereotaxic frame, and the skull surface was exposed. Two holes were drilled at the appropriate sites to allow bilateral infusion of the shuttle/cargo mix or GFP-NLS alone (20 μM) with 5-μL Hamilton syringe. Antero-posterior (AP), lateral (L), and dorso-ventral (DV) coordinates were taken relative to the bregma: (a) AP+0.48 mm, L±3 mm, V-5 mm; (b) AP-b 2 mm, L±1.3 mm, V-1.5 mm; (c) AP-2.6 mm, L 1.5 mm, V-1.5 mm. The infused volume of the shuttle/cargo mix or cargo alone was 5 μL per injection site and the injection was performed for 10 minutes. […]
Dorso-ventral rat brain slices were collected and analysed by fluorescence microscopy and results are shown in at 4× (FIG. 48A), 10× (FIG. 48C) and 20× (FIG. 48D) magnifications. […]

[3] = test system: HeLa cells; test: Transfection plasmid surrogate assay for delivered CRISPR/Cas9-NLS complex (mCherry/GFP fluorescence); type: cell-based, Human; conditions: shuttle 35 μM; 24 and 48 hours post-transduction
Text: This assay enables one to visually identify cells that have been successfully delivered an active […]as9 complex. […] Transfection of the cells with the expression plasmid results in mCherry™ expression, but no GFP expression (FIG. 39B). […] Successful transduction of an active CRISPR/Cas9 complex results in the CRISPR/Cas9 complex cleaving the plasmid DNA at the STOP codon (FIG. 39C). In a fraction of the cells, random non-homologous DNA repair of the cleaved plasmid occurs and results in removal of the STOP codon, and thus GFP expression and fluorescence (FIG. 39E).
On Day 1 of the transfection plasmid surrogate assay, DNA plasmids for different experimental conditions (250 ng) are diluted in DMEM (50 μL) in separate sterile 1.5-mL tubes, vortexed and briefly centrifuged. In separate sterile 1.5-mL tubes, Fastfect™ transfection reagent was diluted in DMEM (50 μL) with no serum and no antibiotics at a ratio of 3:1 (3 μL of Fastfect™ transfection reagent for 1 μg of DNA) and then quickly vortexed and briefly centrifuged. The Fastfect™/DMEM mixture was then added to the DNA mix and quickly vortexed and briefly centrifuged. The Fastfect™/DMEM/DNA mixture is then incubated for 15-20 min at room temperature, before being added to the cells (100 μL per well). The cells are then incubated at 37° C. and 5% CO2 for 5 h. […]

[4] = test system: HeLa cells; test: FITC-labeled anti-tubulin antibody transduction assay (flow cytometry, cell viability, microscopy); conditions: antibody 0.5 μM; shuttle 50 μM; 10 seconds, Protocol B
Procedure: The delivery and microscopy protocols are described in Example 3.
HeLa cells were cultured and tested in the protein transduction assay described in Example 3.1. […] The cells were subjected to flow cytometry analysis as described in Example 3.3.

## CC[C@H](C)[C@H](NC(=O)[C@H](CCCCN)NC(=O)[C@H](CCCCN)NC(=O)[C@H](Cc1ccccc1)NC(=O)[C@H](CC(C)C)NC(=O)[C@H](CCCCN)NC(=O)[C@H](Cc1c[nH]c2ccccc12)NC(=O)[C@H](CCCCN)NC(=O)[C@H](Cc1c[nH]cn1)NC(=O)[C@H](Cc1c[nH]cn1)NC(=O)[C@H](Cc1c[nH]cn1)NC(=O)[C@H](Cc1c[nH]cn1)NC(=O)[C@H](Cc1c[nH]cn1)NC(=O)[C@@H](N)Cc1c[nH]cn1)C(=O)NCC(=O)N[C@@H](C)C(=O)N[C@H](C(=O)N[C@@H](CC(C)C)C(=O)N[C@@H](CCCCN)C(=O)N[C@H](C(=O)N[C@@H](CC(C)C)C(=O)N[C@H](C(=O)N[C@H](C(=O)NCC(=O)N[C@@H](Cc1ccc(O)cc1)C(=O)N[C@@H](C)C(=O)N[C@@H](CCCNC(=N)N)C(=O)N[C@@H](C)C(=O)N[C@@H](C)C(=O)N[C@@H](C)C(=O)N[C@@H](CCCNC(=N)N)C(=O)N[C@@H](CCC(N)=O)C(=O)N[C@@H](C)C(=O)N[C@@H](CCCNC(=N)N)C(=O)N[C@@H](C)C(=O)O)[C@@H](C)O)[C@@H](C)O)C(C)C)C(C)C [His-CM18-PTD4]
[1]
  co-delivery of GFP-NLS and mCherry-NLS (microscopy): successfully delivered together to the nucleus
[2]
  in vivo delivery of GFP-NLS to cell nuclei: delivery of the GFP-NLS in the nucleus of cells from the deeper layers of the parietal cortex (injection site) to the corpus callus and the dorsal level of the striatum (putamen)
[3]
  GFP expression after CRISPR/Cas9-NLS cleavage of plasmid surrogate: GFP fluorescence, the latter resulting from removal of the STOP codon by the transduced CRISPR/Cas9-NLS complex
[4]
  antibody delivery (microscopy, in words): successfully transduced and delivered to the nucleus and/or the cytosol
